Assay results as given in patent US20170101392A1, “PROCESSES FOR THE PREPARATION OF PESTICIDAL COMPOUNDS” (Dow AgroSciences LLC, priority 2013, published 2017).

Experiments:
[1] = tested on: Green Peach Aphid ("GPA") (Myzus Persicae) (MYZUPE); test: Bioassay on green peach aphid (GPA), foliar spray on infested cabbage seedlings; format: in vivo; conditions: 72 h, 200 ppm spray on cabbage leaves, live aphids counted after three days, Abbott's correction, read-out: MYZUPE rating (% Control of Mortality)
Description: Bioassays on Green Peach Aphid (“GPA”) (Myzus Persicae) (MYZUPE.)
GPA is the most significant aphid pest of peach trees, causing decreased growth, shriveling of leaves, and the death of various tissues. It is also hazardous because it acts as a vector for the transport of plant viruses, such as potato virus Y and potato leafroll virus to members of the nightshade/potato family Solanaceae, and various mosaic viruses to many other food crops. GPA attacks such plants as broccoli, burdock, cabbage, carrot, cauliflower, daikon, eggplant, green beans, lettuce, macadamia, papaya, peppers, sweet potatoes, tomatoes, watercress and zucchini among other plants. GPA also attacks many ornamental crops such as carnations, chrysanthemum, flowering white cabbage, poinsettia and roses. GPA has developed resistance to many pesticides.
Several molecules disclosed herein were tested against GPA using procedures described below.
Cabbage seedling grown in 3-in pots, with 2-3 small (3-5 cm) true leaves, were used as test substrate. The seedlings were infested with […] (wingless adult and nymph stages) one day prior to chemical application. Four posts with individual seedlings were used for each treatment. Test compounds (2 mg) were dissolved in 2 mL of acetone/methanol (1:1) solvent, forming stock solutions of 1000 ppm test compound. The stock solutions were diluted 5× with 0.025% Tween 20 in water to obtain the solution at 200 ppm test compound. A hand-held aspirator-type sprayer was used for spraying a solution to both sides of the cabbage leaves until runoff. Reference plants (solvent check) were sprayed with the diluent only containing 20% by volume acetone/methanol (1:1) solvent. Treated plants were held in a holding room for three days at approximately 25° C. and ambient relative humidity (RH) prior to grading. Evaluation was conducted by counting the number of live aphids per plant under a microscope. Percent Control was measured by using Abbott's correction formula (W. S. Abbott, “A Method of Computing the Effectiveness of an Insecticide” J. Econ. Entomol 18 (1925), pp. 265-267) as follows.
Corrected % Control=100*(X−Y)/X • where • X=No. of live aphids on solvent check plants and • Y=No. of live aphids on treated plants
The results are indicated in the table entitled “Table 1: GPA (MYZUPE) and sweetpotato whitefly-crawler (BEMITA) Rating Table”.

[2] = tested on: Sweetpotato Whitefly Crawler (Bemisia Tabaci) (BEMITA); test: Bioassay on sweetpotato whitefly crawler, foliar spray on infested cotton plants; format: in vivo; conditions: 200 ppm spray on cotton leaves, live nymphs counted after 8-9 days, Abbott's correction, read-out: BEMITA rating (% Control of Mortality)
Description: Bioassays on Sweetpotato Whitefly Crawler (Bemisia Tabaci) (BEMITA.)
The sweetpotato whitefly, Bemisia tabaci (Gennadius), has been recorded in the United States since the late 1800s. In 1986 in Florida, Bemisia tabaci became an extreme economic pest. Whiteflies usually feed on the lower surface of their host plant leaves. From the egg hatches a minute crawler stage that moves about the leaf until it inserts its microscopic, threadlike mouthparts to feed by sucking sap from the phloem. Adults and nymphs excrete honeydew (largely plant sugars from feeding on phloem), a sticky, viscous liquid in which dark sooty molds grow. Heavy infestations of adults and their progeny can cause seedling death, or reduction in vigor and yield of older plants, due simply to sap removal. The honeydew can stick cotton lint together, making it more difficult to gin and therefore reducing its value. Sooty mold grows on honeydew-covered substrates, obscuring the leaf and reducing photosynthesis, and reducing fruit quality grade. It transmitted plant-pathogenic viruses that had never affected cultivated crops and induced plant physiological disorders, such as tomato irregular ripening and squash silverleaf disorder. Whiteflies are resistant to many formerly effective insecticides.
Cotton plants grown in 3-inch pots, with 1 small (3-5 cm) true leaf, were used at test substrate. The plants were placed in a room with whitely adults. Adults were allowed to deposit eggs for 2-3 days. After a 2-3 day egg-laying period, plants were taken from the adult whitefly room. Adults were blown off leaves using a hand-held Devilbliss sprayer (23 psi). Plants with egg infestation (100-300 eggs per plant) were placed in a holding room for 5-6 days at 82° F. and 50% RH for egg hatch and crawler stage to develop. Four cotton plants were used for each treatment. Compounds (2 mg) were dissolved in 1 mL of acetone solvent, forming stock solutions of 2000 ppm. The stock solutions were diluted 10× with 0.025% Tween 20 in water to obtain a test solution at 200 ppm. A hand-held Devilbliss sprayer was used for spraying a solution to both sides of cotton leaf until runoff. Reference plants (solvent check) were sprayed with the diluent only. Treated plants were held in a holding room for 8-9 days at approximately 82° F. and 50% RH prior to grading. Evaluation was conducted by counting the number of live nymphs per plant under a microscope.

Structure (SMILES) | mortality at 200 ppm [1] [%] | mortality at 200 ppm [2] [%]
O=C(CCCl)Nc1cn(-c2cccnc2)nc1Cl [Compound 5e, 3-Chloro-N-(3-chloro-1-(pyridine-3-yl)-1H-pyrazol-4-yl)propanamide] | 80 to 100 | 80 to 100
O=C(CCSCCC(F)(F)F)Nc1cn(-c2cccnc2)nc1Cl [Compound 5.5, N-(3-Chloro-1-(pyridin-3-yl)-1H-pyrazol-4-yl)-3-((3,3,3-trifluoropropyl)thio)-propanamide] | 80 to 100 | 0 to 80
CCN(C(=O)CC[S+]([O-])CCC(F)(F)F)c1cn(-c2cccnc2)nc1Cl (stereo not shown) [Compound 9.5, N-(3-Chloro-1-(pyridin-3-yl)-1H-pyrazol-4-yl)-N-ethyl-3-((3,3,3-trifluropropyl)sulfoxo)propanamide] | 80 to 100 | 80 to 100
ClC1=NN(c2cccnc2)CC1 [Compound 5a, 3-(3-Chloro-4,5-dihydro-1H-pyrazol-1-yl)pyridine] | 0 to 80 | 0 to 80
CCN(C(=O)CCSCCC(F)(F)F)c1cn(-c2cccnc2)nc1Cl [Compound 8.5, N-(3-Chloro-1-(pyridin-3-yl)-1H-pyrazol-4-yl)-N-ethyl-3-((3,3,3-trifluropropyl)thio)propanamide] | 80 to 100 | 80 to 100
